{
  "source": "patent US9814236B2",
  "about": "“Agricultural or horticultural chemical, method of controlling plant diseases, and product for controlling plant diseases” (Kureha Corporation, priority 2013, dated 2017)",
  "type_in_all_cases": "cell-based",
  "key": {"[1]": {"system": "wheat leaf blight (Septoria tritici)", "experiment": "In vitro antimicrobial activity test on PDA agar plates, 25° C., 14 days (Test Examples 4 to 7)", "experimental": "(§1) Additionally, in the above formula, R represents a fungal expansion suppression rate (%), dc represents the diameter of a colony on an untreated plate, and dt represents the diameter of a colony on an chemical-treated plate.\n(§2) Inhibition rate during mixed use (theoretical value)=α+((100−α)×β)/100, note that, in the formula above, α and β respectively represent the inhibition rates of the compounds during single use of the compounds.\nTesting and determination were performed in the same manner as in Test Example 4 except for using the thiophanate-methyl in place of the boscalid.\nTest and determination were performed in the same manner as in Test Example 4 except for using the chlorothalonil in place of the boscalid."}, "[2]": {"system": "gray mold disease (Botrytis cinerea)", "experiment": "In vitro antimicrobial activity test on PDA agar plates, 20° C., two days (Test Examples 3, 8)", "settings": "Test Example 8", "experimental": "as §1, §2\nTest and determination were performed in the same manner as in Test Example 3 except for using the penthiopyrad in place of the isopyrazam."}, "[3]": {"system": "gray mold disease (Botrytis cinerea)", "experiment": "In vitro antimicrobial activity test on PDA agar plates, 20° C., two days (Test Examples 3, 8)", "settings": "Test Example 3"}, "[4]": {"system": "wheat leaf blight (Septoria tritici)", "experiment": "In vitro antimicrobial activity test on PDA agar plates, 20° C., three days (Test Example 1)", "experimental": "In the present test example, the antimicrobial properties of a mixed formulation of compound (1) and bixafen on wheat leaf blight (Septoria tritici) were tested.\nas §1, §2"}, "[5]": {"system": "wheat damping off (Gaeumannomyces graminis)", "experiment": "In vitro antimicrobial activity test on PDA agar plates, 20° C., three days (Test Example 2)", "text": "as §1, §2\nIn the present test example, the antimicrobial properties of a mixed formulation of compound (1) and bixafen on wheat damping off (Gaeumannomyces graminis) were tested.\nMeanwhile, wheat damping off was punched out from the periphery of a colony of wheat damping off using a cork borer having a diameter of 4 mm, and inoculated onto the PDA agar plates in which the chemical(s) was(were) mixed."}},
  "note": "Like-named read-outs stand apart in the source and are kept apart here.",
  "data": [
    {"molecule": "Cn1cc(C(=O)Nc2ccccc2-c2cc(F)c(F)c(F)c2)c(C(F)F)n1", "note": "[Fluxapyroxad, fluxapyroxad]", "values": [
      {"measurement": "Fungal growth inhibition rate (%) Measured value", "setting": "[1]; Test Example 7, Fluxapyroxad 0.04 ppm alone", "result": 11, "unit": "%"},
      {"measurement": "Fungal growth inhibition rate (%) Measured value", "setting": "[1]; Test Example 7, Fluxapyroxad 0.16 ppm alone", "result": 34, "unit": "%"},
      {"measurement": "Fungal growth inhibition rate (%) Measured value", "setting": "[1]; Test Example 7, Fluxapyroxad 0.63 ppm alone", "result": 74, "unit": "%"}
    ]},
    {"molecule": "O=C(Nc1ccccc1-c1ccc(Cl)cc1)c1cccnc1Cl", "note": "[Boscalid, boscalid]", "values": [
      {"measurement": "inhibition at 0.0393 ppm", "setting": "[1]; Zymoseptoria tritici, 4TO7, Test Example 4, Boscalid 0.0393 ppm alone, read-out: Fungal growth inhibition rate (%) Measured value", "result": 0, "unit": "%"},
      {"measurement": "inhibition at 0.1575 ppm", "setting": "[1]; Zymoseptoria tritici, 4TO7, Test Example 4, Boscalid 0.1575 ppm alone, read-out: Fungal growth inhibition rate (%) Measured value", "result": 0, "unit": "%"},
      {"measurement": "inhibition at 0.63 ppm", "setting": "[1]; Zymoseptoria tritici, 4TO7, Test Example 4, Boscalid 0.63 ppm alone, read-out: Fungal growth inhibition rate (%) Measured value", "result": 31, "unit": "%"},
      {"measurement": "inhibition at 2.5 ppm", "setting": "[1]; Zymoseptoria tritici, 4TO7, Test Example 4, Boscalid 2.5 ppm alone, read-out: Fungal growth inhibition rate (%) Measured value", "result": 49, "unit": "%"},
      {"measurement": "inhibition at 10 ppm", "setting": "[1]; Zymoseptoria tritici, 4TO7, Test Example 4, Boscalid 10 ppm alone, read-out: Fungal growth inhibition rate (%) Measured value", "result": 100, "unit": "%"}
    ]},
    {"molecule": "CC(C)CC(C)c1sccc1NC(=O)c1cn(C)nc1C(F)(F)F", "note": "(stereo not drawn) [Penthiopyrad, penthiopyrad]", "values": [
      {"measurement": "inhibition at 0.63 ppm", "setting": "[2]; Botrytis cinerea, Penthiopyrad 0.63 ppm alone, read-out: Fungal growth inhibition rate (%) Measured value", "result": 31, "unit": "%"},
      {"measurement": "inhibition at 2.5 ppm", "setting": "[2]; Botrytis cinerea, Penthiopyrad 2.50 ppm alone, read-out: Fungal growth inhibition rate (%) Measured value", "result": 61, "unit": "%"},
      {"measurement": "inhibition at 10 ppm", "setting": "[2]; Botrytis cinerea, Penthiopyrad 10.00 ppm alone, read-out: Fungal growth inhibition rate (%) Measured value", "result": 93, "unit": "%"}
    ]},
    {"molecule": "CC(C)C1C2CCC1c1c(NC(=O)c3cn(C)nc3C(F)F)cccc12", "note": "(stereo not drawn) [Isopyrazam, isopyrazam]", "values": [
      {"measurement": "Fungal growth inhibition rate (%) Measured value", "setting": "[3]; Isopyrazam 0.0393 ppm alone", "result": 1, "unit": "%"},
      {"measurement": "Fungal growth inhibition rate (%) Measured value", "setting": "[3]; Isopyrazam 0.1575 ppm alone", "result": 9, "unit": "%"},
      {"measurement": "Fungal growth inhibition rate (%) Measured value", "setting": "[3]; Isopyrazam 0.63 ppm alone", "result": 23, "unit": "%"},
      {"measurement": "Fungal growth inhibition rate (%) Measured value", "setting": "[3]; Isopyrazam 2.5 ppm alone", "result": 35, "unit": "%"},
      {"measurement": "Fungal growth inhibition rate (%) Measured value", "setting": "[3]; Isopyrazam 10 ppm alone", "result": 69, "unit": "%"}
    ]},
    {"molecule": "COC(=O)C1(C)CCC(Cc2ccc(Cl)cc2)C1(O)Cn1cncn1", "note": "(stereo not drawn) [Compound (1), 3-(4-chlorobenzyl)-2-hydroxy-1-methyl-2-(1H-1,2,4-triazol-1-ylmethyl) cyclopentane carboxylic acid methyl]", "values": [
      {"measurement": "Fungal growth inhibition rate (%) Measured value", "setting": "[4]; Compound (1) 0.005 ppm alone", "result": 0, "unit": "%"},
      {"measurement": "Fungal growth inhibition rate (%) Measured value", "setting": "[5]; Compound (1) 0.005 ppm alone", "result": 0, "unit": "%"},
      {"measurement": "Fungal growth inhibition rate (%) Measured value", "setting": "[2]; Compound (1) 0.078 ppm alone", "result": 13, "unit": "%"},
      {"measurement": "Fungal growth inhibition rate (%) Measured value", "setting": "[3]; Compound (1) 0.078 ppm alone", "result": 4, "unit": "%"},
      {"measurement": "Fungal growth inhibition rate (%) Measured value", "setting": "[1]; Test Example 4, Compound (1) 0.02 ppm alone", "result": 0, "unit": "%"},
      {"measurement": "Fungal growth inhibition rate (%) Measured value", "setting": "[1]; Test Example 5, Compound (1) 0.005 ppm alone", "result": 23, "unit": "%"},
      {"measurement": "Fungal growth inhibition rate (%) Measured value", "setting": "[1]; Test Example 6, Compound (1) 0.005 ppm alone", "result": 81, "unit": "%"},
      {"measurement": "Fungal growth inhibition rate (%) Measured value", "setting": "[1]; Test Example 7, Compound (1) 0.02 ppm alone", "result": 7, "unit": "%"}
    ]},
    {"molecule": "Cn1cc(C(=O)Nc2ccc(F)cc2-c2ccc(Cl)c(Cl)c2)c(C(F)F)n1", "note": "[Bixafen, bixafen]", "values": [
      {"measurement": "Fungal growth inhibition rate (%) Measured value", "setting": "[4]; Bixafen 0.0393 ppm alone", "result": 0, "unit": "%"},
      {"measurement": "Fungal growth inhibition rate (%) Measured value", "setting": "[4]; Bixafen 0.1575 ppm alone", "result": 6, "unit": "%"},
      {"measurement": "Fungal growth inhibition rate (%) Measured value", "setting": "[4]; Bixafen 0.63 ppm alone", "result": 31, "unit": "%"},
      {"measurement": "Fungal growth inhibition rate (%) Measured value", "setting": "[4]; Bixafen 2.5 ppm alone", "result": 54, "unit": "%"},
      {"measurement": "Fungal growth inhibition rate (%) Measured value", "setting": "[5]; Bixafen 0.0393 ppm alone", "result": 0, "unit": "%"},
      {"measurement": "Fungal growth inhibition rate (%) Measured value", "setting": "[5]; Bixafen 0.1575 ppm alone", "result": 3, "unit": "%"},
      {"measurement": "Fungal growth inhibition rate (%) Measured value", "setting": "[5]; Bixafen 0.63 ppm alone", "result": 4, "unit": "%"},
      {"measurement": "Fungal growth inhibition rate (%) Measured value", "setting": "[5]; Bixafen 2.5 ppm alone", "result": 29, "unit": "%"}
    ]},
    {"molecule": "N#Cc1c(Cl)c(Cl)c(Cl)c(C#N)c1Cl", "note": "[Chlorothalonil, chlorothalonil]", "values": [
      {"measurement": "inhibition at 0.01 ppm", "setting": "[1]; Zymoseptoria tritici, 4TO7, Test Example 6, Chlorothalonil 0.010 ppm alone, read-out: Fungal growth inhibition rate (%) Measured value", "result": 0, "unit": "%"},
      {"measurement": "inhibition at 0.039 ppm", "setting": "[1]; Zymoseptoria tritici, 4TO7, Test Example 6, Chlorothalonil 0.039 ppm alone, read-out: Fungal growth inhibition rate (%) Measured value", "result": 0, "unit": "%"},
      {"measurement": "inhibition at 0.156 ppm", "setting": "[1]; Zymoseptoria tritici, 4TO7, Test Example 6, Chlorothalonil 0.156 ppm alone, read-out: Fungal growth inhibition rate (%) Measured value", "result": 0, "unit": "%"},
      {"measurement": "inhibition at 0.625 ppm", "setting": "[1]; Zymoseptoria tritici, 4TO7, Test Example 6, Chlorothalonil 0.625 ppm alone, read-out: Fungal growth inhibition rate (%) Measured value", "result": 3, "unit": "%"},
      {"measurement": "inhibition at 2.5 ppm", "setting": "[1]; Zymoseptoria tritici, 4TO7, Test Example 6, Chlorothalonil 2.5 ppm alone, read-out: Fungal growth inhibition rate (%) Measured value", "result": 30, "unit": "%"}
    ]},
    {"molecule": "COC(=O)NC(=S)Nc1ccccc1NC(=S)NC(=O)OC", "note": "[Thiophanate-methyl, thiophanate-methyl]", "values": [
      {"measurement": "inhibition at 0.01 ppm", "setting": "[1]; Zymoseptoria tritici, 4TO7, Test Example 5, Thiophanate-methyl 0.010 ppm alone, read-out: Fungal growth inhibition rate (%) Measured value", "result": 0, "unit": "%"},
      {"measurement": "inhibition at 0.039 ppm", "setting": "[1]; Zymoseptoria tritici, 4TO7, Test Example 5, Thiophanate-methyl 0.039 ppm alone, read-out: Fungal growth inhibition rate (%) Measured value", "result": 0, "unit": "%"},
      {"measurement": "inhibition at 0.156 ppm", "setting": "[1]; Zymoseptoria tritici, 4TO7, Test Example 5, Thiophanate-methyl 0.156 ppm alone, read-out: Fungal growth inhibition rate (%) Measured value", "result": 0, "unit": "%"},
      {"measurement": "inhibition at 0.625 ppm", "setting": "[1]; Zymoseptoria tritici, 4TO7, Test Example 5, Thiophanate-methyl 0.625 ppm alone, read-out: Fungal growth inhibition rate (%) Measured value", "result": 76, "unit": "%"},
      {"measurement": "inhibition at 2.5 ppm", "setting": "[1]; Zymoseptoria tritici, 4TO7, Test Example 5, Thiophanate-methyl 2.5 ppm alone, read-out: Fungal growth inhibition rate (%) Measured value", "result": 100, "unit": "%"}
    ]}
  ]
}
